What was measured:
[1] = biological target: T1, EP2 prostanoid receptor (Homo sapiens, UniProt P43116); test: GloSensor cAMP assay in CHO-K1 cells co-transfected with EP2 receptor; format: cell-based
T1 construct: host or cells: CHO-K1
Excerpt: A cell based Chinese hamster ovary-K1 (CHO-K1) assay based on the GloSensor™ cAMP assay (Promega) was used to characterize the effect of treprostinil alkyl ester compounds on cAMP levels.
cAMP is a second messenger involved in signal transduction of G-protein coupled receptors (GPCRs) acting through Gα-s and Gα-i proteins. Because the treprostinil receptor is a GPCR, the assay provides an indication of whether the respective prostacyclin composition binds its receptor and activates the GPCR cell signaling cascade.
The GloSensor™ assay harnesses a genetically modified form of firefly luciferase into which a cAMP-binding protein moiety has been inserted. Upon binding of cAMP, a conformational change is induced leading to increased light output.
The EP2 prostanoid receptor was co-transfected with the GloSensor™ plasmid (Promega) into CHO-K1 cells as follows. CHO-K1 cells were harvested when the monoloayer was at 50-90% confluence. First, cells were washed with 5 mL PBS. […] Cell number was determined using a hemacytometer. […]
Following incubation, cells were treated and analyzed. […] Cell number was determined using a hemacytometer. […] Following an overnight incubation at 37° C. and 5% CO2 in a water-jacketed incubator, the cells were ready for use in cAMP response assays. […]

[2] = Dialysis assay against PBS (treprostinil release); format: physicochemical; conditions: 5 mL dialyzed against 1 L 1×PBS, 50 kDa MW cutoff membrane
Experimental: The results of this study can be used as an indication of which compositions might provide a sustained release profile in vivo.
5 mL of each sample was dialyzed against 1 L of 1×PBS. […] sample was collected and tested by HPLC at different time points (FIG. 7). 250 μL sample was collected at 24 h. Each time a sample was collected, an equal volume of 1×PBS was added to the dialysis bag. Absorbance data was normalized to the calculated dilution factor.

[3] = cited from earlier work

T1 sequence (P43116 whole entry): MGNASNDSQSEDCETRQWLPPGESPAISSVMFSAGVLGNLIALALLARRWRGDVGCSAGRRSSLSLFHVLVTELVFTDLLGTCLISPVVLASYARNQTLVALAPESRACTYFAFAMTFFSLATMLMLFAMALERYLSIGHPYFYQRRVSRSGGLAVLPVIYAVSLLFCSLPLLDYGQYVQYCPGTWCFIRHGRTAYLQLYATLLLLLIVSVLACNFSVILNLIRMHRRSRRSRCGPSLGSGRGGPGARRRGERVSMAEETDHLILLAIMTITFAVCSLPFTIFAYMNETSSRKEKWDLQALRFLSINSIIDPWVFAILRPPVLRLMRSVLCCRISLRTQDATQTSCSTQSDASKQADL

Row | sustained cAMP level [1] | rate of treprostinil release during dialysis [2] | SMILES | time to steady state plasma concentrations ([3]; continuous subcutaneous infusion, 1.25 to 22 ng/kg/min) | excreted in urine as identifiable metabolite ([3]; in vivo) | excreted in urine as unchanged drug ([3]; in vivo) | decrease of clearance ([3]; patients with hepatic insufficiency) | absolute bioavailability ([3]; subcutaneous administration) | elimination half-life ([3]; subcutaneous administration) | administered drug excreted in urine ([3]; unchanged drug or identifiable metabolite) | half-life ([3]; in vivo)
1 | not exhibited | dialyzed out the fastest | CCCCC[C@H](O)CC[C@@H]1[C@H]2Cc3cccc(OCC(=O)O)c3C[C@H]2C[C@H]1O [treprostinil] | about 10 hours | 64% | 4% | up to 80% | 100% | 4.6 h | Approximately 79% | 
2 |  |  | CCCCC[C@H](O)/C=C/[C@@H]1[C@H]2C/C(=C/CCCC(=O)O)O[C@H]2C[C@H]1O [epoprostenol] |  |  |  |  |  |  |  | 2 to 7 min

— patent publication US20150328232A1, “PROSTACYLIN COMPOSITIONS AND METHODS FOR USING THE SAME” (INSMED INCORPRATION, priority 2012, published 2015)
